Data reported in patent publication US10087171B2, “Crystalline forms of cadazolid” (ACTELION PHARMACEUTICALS LTD, priority 2016, dated 2018).

How the values were obtained:
Assay type in all cases: physicochemical
[1] = Gravimetric water vapor sorption analysis GVS1 at 25° C.; conditions: for hysteresis in GVS: 0% to 95% r.h.
Procedure: GVS1: Projekt Messtechnik SPS 11-100n water vapor sorption analyzer. The samples are placed in aluminum crucibles on top of a microbalance. They are equilibrated at 25° C. and 50% r.h. and are then subjected to a pre-defined humidity program at 25° C. in the order 50-0-95-50% r.h. A scanning rate of r.h.=5%/h is used and ‘isohumid’ equilibration periods are included at the extreme values.

[2] = Relative thermodynamic stability deduced from melting points and melting enthalpies; conditions: at room temperature
Procedure: DSC data are collected on a Perkin Elmer DSC 7. The instrument is calibrated for energy and temperature using certified indium. Samples are sealed in hermetically closed gold crucibles under N2, heating rates of 10° C./min or 100° C./min, scan from −50° C. to variable end temperatures. Peak temperatures are reported for melting points.
The relative thermodynamic stability of polymorphic forms can be deduced from their melting points and melting enthalpies (L. Yu, Journal of Pharmaceutical Sciences 84 (1995) 966-974). These values are summarized in the Table 6 below for form A and C of cadazolid: […]

[3] = Suspension equilibration experiments
Procedure: 27 mg of cadazolid in form A and 25 mg of cadazolid in form C (obtainable as described in Example 3) are suspended in 1 mL H2O, treated for 5 min in an ultrasound bath and agitated at 25° C. The solid is filtered off after 5 days and analyzed. The obtained material is cadazolid in form B.
The following suspension equilibration experiments are performed in organic solvent (mixture of methanol and dichloromethane) and in water:
26 mg of cadazolid in form A and 25 mg of cadazolid in form C are suspended in 1 mL MeOH/CH2Cl21:3 and agitated at 25° C. The solid is filtered off after 5 days and is cadazolid in form A.
27 mg of cadazolid in form A and 26 mg of cadazolid in form C are suspended in 1 mL MeOH/CH2Cl2 1:3 and agitated at 5° C. for 2 days. Some solid is isolated by drying on a filter paper and consists of cadazolid in form A.
29 mg of cadazolid in form A and 26 mg of cadazolid in form C are suspended in 1 mL H2O, treated for 5 min in an ultrasound bath and agitated at 5° C. for 2 days. Some solid is isolated by drying on filter paper and consists of cadazolid in form B.

[4] = Gravimetric water vapor sorption analysis GVS2 at 25° C.
Text: GVS2: Surface Measurement Systems Ltd. DVS-1 water vapor sorption analyzer. The sample is placed in a Pt pan suspended on a micro balance and is exposed to a N2 flow with 95% r.h. at the beginning and then decreasing with a constant rate of 5%/h.

[5] = MeOH/CH2Cl2 1:3, 25° C., 5 days

| SMILES | solid form after GVS (post GVS XRPD) [1] | weight increase between 0% and 95% r.h. [1] | weight increase between 0% and 95% r.h. as equivalents H2O [1] | hysteresis in GVS [1] | water content of the solid at 40% r.h. [1] [%] | hygroscopicity classification ([1]; 40% to 95% r.h., adapted methodology, classification according to Pharm. Eur 8.0, section 5.11) | water content of the solid at 95% r.h. [1] [%] | relative thermodynamic stability of polymorphic forms A and C [2] | solid form obtained after suspension equilibration of form A and form C together ([3]; H2O, 5° C., 2 days) | solid form obtained after suspension equilibration of form A and form C together ([3]; H2O, 25° C., 5 days) | solid form obtained after suspension equilibration of form A and form C together ([3]; MeOH/CH2Cl2 1:3, 5° C., 2 days) | solid form obtained after suspension equilibration of form A and form C together [3, 5] | relative thermodynamic stability concluded from suspension equilibration and GVS2 data ([3]; at 25° C., both at low and high relative humidity) | maximum difference in water content between 0% and 95% r.h. [1] [mol/mol] | continuous weight loss during 6 h equilibration at 95% r.h. [4] | r.h. at which the water content of form A is reached ([4]; decreasing r.h.) | additional, accelerated weight loss upon lowering the r.h. ([4]; r.h. lowered at a rate of 5%/h) |
| --- | --- | --- | --- | --- | --- | --- | --- | --- | --- | --- | --- | --- | --- | --- | --- | --- | --- |
| O=C(O)c1cn(C2CC2)c2cc(N3CCC(O)(COc4ccc(N5C[C@H](CO)OC5=O)cc4F)CC3)c(F)cc2c1=O [amorphous state, 1-cyclopropyl-6-fluoro-7-{4-[2-fluoro-4-((R)-5-hydroxymethyl-2-oxo-oxazolidin-3-yl)-phenoxymethyl]-4-hydroxy-piperidin-1-yl}-4-oxo-1,4-dihydro-quinoline-3-carboxylic acid] | amorphous as tested by a post GVS | A weight increase of about 7% (circa | 2.3 equivalents H2O) between 0% and | 95% r.h. with a significant hysteresis | 1.8 | considered as being hygroscopic (adapted | 7.17 | – | – | – | – | – | – | – | – | – | – |
| O=C(O)c1cn(C2CC2)c2cc(N3CCC(O)(COc4ccc(N5C[C@H](CO)OC5=O)cc4F)CC3)c(F)cc2c1=O [crystalline form A, 1-cyclopropyl-6-fluoro-7-{4-[2-fluoro-4-((R)-5-hydroxymethyl-2-oxo-oxazolidin-3-yl)-phenoxymethyl]-4-hydroxy-piperidin-1-yl}-4-oxo-1,4-dihydro-quinoline-3-carboxylic acid] | – | – | – | No hysteresis | 0.81 | – | 1.81 | more thermodynamically stable form | form B | form B | form A | form A | thermodynamically more stable than form C | ~0.5 | – | – | – |
| O=C(O)c1cn(C2CC2)c2cc(N3CCC(O)(COc4ccc(N5C[C@H](CO)OC5=O)cc4F)CC3)c(F)cc2c1=O [crystalline form B, 1-cyclopropyl-6-fluoro-7-{4-[2-fluoro-4-((R)-5-hydroxymethyl-2-oxo-oxazolidin-3-yl)-phenoxymethyl]-4-hydroxy-piperidin-1-yl}-4-oxo-1,4-dihydro-quinoline-3-carboxylic acid] | – | – | – | – | – | – | – | – | – | – | – | – | – | – | 30% during 6 h equilibration at 95% r.h. is | the r.h. at a rate of 5%/h. At 80% r.h., the water | loss of approx. 15% is observed upon lowering |
| O=C(O)c1cn(C2CC2)c2cc(N3CCC(O)(COc4ccc(N5C[C@H](CO)OC5=O)cc4F)CC3)c(F)cc2c1=O [crystalline form C, 1-cyclopropyl-6-fluoro-7-{4-[2-fluoro-4-((R)-5-hydroxymethyl-2-oxo-oxazolidin-3-yl)-phenoxymethyl]-4-hydroxy-piperidin-1-yl}-4-oxo-1,4-dihydro-quinoline-3-carboxylic acid] | – | – | – | – | 0.33 | – | 2.52 | – | form B | form B | form A | form A | – | – | – | – | – |
